Experimental data: US9688689B2, “Compounds and compositions for inducing chondrogenesis” (Novartis AG, priority 2014, dated 2017)

Test system: Primary articular chondrocytes from normal bovine knees
Test: NO Release Assay in Bovine Chondrocytes (inhibition of cytokine induced NO release, Greiss reagent)
Assay type: cell-based
Conditions: Bos taurus, Chondrocyte; 20 ng/ml TNFα and 10 ng/ml human oncostatin M, 48 hours; read-out: NO Inh. IC50
Description: The compounds of the present invention were evaluated in two functional assays to assess their chondrogenesis activities (Type II Collagen Expression) and chondrocyte protective activities (NO release assay).
The assay was described in Johnson, K., et al., (2012) Science 336, 717-721. Chondrocytes release NO during OA pathogenesis. This assay measures the inhibition of nitric oxide release by the treated compound (an indicator of chondro-protection) Primary articular chondrocytes from normal bovine knees (Animal Technologies, Tyler, Tex.) were isolated after dissection and collagenase digestion (Worthington Biochemical) of the tibial plateau and femoral condyle articular cartilage. The cells were initially plated at 80-90% confluency after isolation. Primary chondrocytes were cultured in high-glucose Dulbecco's modified Eagle's medium (DMEM) supplemented with 10% fetal bovine serum (FBS), 1% L-glutamine, 100 units/ml of penicillin, and 50 μg/ml of streptomycin (Life Technologies, Carlsbad, Calif.) and maintained at 37° C. in the presence of 5% CO2 for 7 days prior to initiation of each experiment. During the 7-day culture period, the cells adhered and established a chondrocyte-like appearance that was maintained throughout the experimental period. Functional studies on chondrocytes were performed in high-glucose DMEM with no FBS unless indicated otherwise.
After one week of culture, 8500 cells were plated per well in Greiner 384 well white clear bottom plates in growth media. Following 24 hours of culture, the media was removed and replaced with serum free DMEM containing 20 ng/ml TNFα and 10 ng/ml human oncostatin M (inflammatory mediators). […] 20 μl of the supernatant was mixed with 20 μl of the Greiss reagent (Promega # G2930) and quantitated at 540 nm. The Greiss reagent part A (1% Sulfanilamide in 5% phosphoric acid) was mixed at a 1:1 ration with Greiss reagent part B (0.1% N-1-napthylethylenediamine dihydrochloride in water) immediately prior to added to the culture supernatant.

| Structure (SMILES) | IC50 |
| --- | --- |
| O=C(Nc1ccc(Cl)c(Cl)c1)[C@@H]1[C@@H](c2ccncc2)[C@@H]2CC[C@H]1O2 [Compound 118, (1R,2R,3S,4S)—N-(3,4-dichlorophenyl)-3-(pyridin-4-yl)-7-oxabicyclo[2.2.1]heptane-2-carboxamide] | > 33 µM |
| O=C(Nc1cccc(Cl)c1F)[C@H]1[C@H](c2ccncc2)[C@@H]2CC[C@H]1O2 [Compound 41] | > 33 µM |
| O=C(Nc1ccc(-c2ccccc2Cl)c(F)c1)[C@H]1[C@@H](c2cccc(C(F)(F)F)n2)[C@H]2CC[C@@H]1O2 [Compound 123] | > 11 µM |
| Cn1ccc([C@@H]2[C@H](C(=O)Nc3ccc(-c4ccccc4)cc3)[C@@H]3CC[C@H]2O3)n1 [Compound 122] | > 33 µM |
| COC(=O)c1cc(Cl)ccc1NC(=O)[C@H]1[C@H](c2ccncc2)[C@@H]2CC[C@H]1O2 [Compound 24] | > 33 µM |
| O=C(Nc1ccc(-c2ccccc2F)c(F)c1)[C@@H]1[C@H](c2cc(Cl)nc(Cl)c2)[C@@H]2CC[C@H]1O2 [Compound 87] | > 33 µM |
| O=C(Nc1ccc(Cl)c(Cl)c1)[C@@H]1[C@H](c2ccncc2)[C@@H]2CC[C@H]1O2 [Compound 135] | > 33 µM |
| O=C(Nc1ccc(-c2ccccc2)c(Cl)c1)[C@H]1[C@@H](c2ccncc2)[C@@H]2CC[C@H]1O2 [Compound 104] | > 33 µM |
| CCOC(=O)c1ccc(NC(=O)C2=C(c3cccc(C(F)(F)F)n3)[C@@H]3CCC2O3)cc1F [Compound 43] | > 33 µM |
| O=C(Nc1ccc(-c2ccccc2F)c(F)c1)[C@@H]1[C@H](c2ccnc(F)c2Cl)[C@@H]2CC[C@H]1O2 [Compound 95] | 0.18 µM |
| O=C(Nc1ccc(-c2ccccc2F)c(F)c1)[C@@H]1[C@@H](c2cccc(C(F)(F)F)n2)[C@@H]2CC[C@H]1O2 [Compound 86] | > 33 µM |
| Cn1nc(C(F)(F)F)cc1C1=C(C(=O)Nc2ccc(-c3ccccc3F)c(F)c2)C2CC[C@@H]1O2 [Compound 137] | 8.2 µM |
| N#Cc1cc([C@H]2[C@@H](C(=O)Nc3ccc(-c4ccccc4F)c(F)c3)[C@H]3CC[C@@H]2O3)ccn1 [Compound 20] | > 33 µM |
| O=C(Nc1cnc(-c2ccccc2)nc1)C1=C(c2ccncc2)C2CCC1O2 (stereo not shown) [Compound 38] | > 33 µM |
| O=C(Nc1ccc(-c2ccccc2)c(Cl)c1)C1=C(c2ccnn2C2CCOCC2)[C@@H]2CCC1O2 [Compound 50] | 14 µM |
| O=C(Nc1ccc(-c2ccccc2F)c(F)c1)C1=C(c2ccncc2F)[C@@H]2CCC1O2 [Compound 109] | > 33 µM |
| O=C(Nc1ccc(-c2ccccc2F)c(F)c1)C1=C(c2ccnc(Cl)c2)[C@@H]2CCC1O2 [Compound 44] | 28 µM |
| O=C(Nc1ccc(-c2ccc(F)cc2F)c(F)c1)[C@@H]1[C@@H](c2ccncc2)[C@@H]2CC[C@H]1O2 [Compound 111] | > 33 µM |
| C[C@]12CC[C@](C)(O1)[C@@H](c1ccncc1)[C@H]2C(=O)Nc1ccc(-c2ccccc2F)c(F)c1 [Compound 93] | > 33 µM |
| O=C(Nc1ccc(Cl)c(Cl)c1)[C@H]1[C@H](c2ccncc2)[C@@H]2CC[C@H]1O2 [Compound 162] | > 33 µM |

| Structure (SMILES) | IC50 |
| --- | --- |
| O=C(Nc1ccc(Cl)c(Cl)c1)C1=C(c2cnccn2)[C@@H]2CC[C@H]1O2 [Compound 144] | > 33 µM |
| Nc1cc(C2=C(C(=O)Nc3ccc(-c4ccccc4F)c(F)c3)C3CC[C@@H]2O3)ccn1 [Compound 49] | > 33 µM |
| O=C(Nc1ccc(Cl)c(Cl)c1)[C@@H]1[C@H](c2ccncc2)[C@H]2CC[C@@H]1O2 [Compound 8] | > 33 µM |
| O=C(Nc1ccc(-c2ccccc2F)c(F)c1)C1=C(c2ccnn2C2CCOCC2)C2CCC1O2 (stereo not shown) [Compound 62] | 15 µM |
| O=C(Nc1ccc(-c2ccccc2)cc1)[C@@H]1[C@H](c2ccncc2)[C@@H]2CC[C@H]1O2 [Compound 74] | > 33 µM |
| CCOC(=O)c1ccccc1NC(=O)[C@H]1[C@@H](c2nc(-c3ccc(Cl)cc3)no2)[C@@H]2CC[C@H]1O2 [Compound 2] | > 30 µM |
| O=C(Nc1ccc(-c2ccccc2F)c(F)c1)C1=C(c2cnccn2)[C@@H]2CC[C@H]1O2 [Compound 164] | > 33 µM |
| Cc1cc([C@@H]2[C@@H](C(=O)Nc3ccc(Cl)c(Cl)c3)[C@H]3CC[C@@H]2O3)ccn1 [Compound 69] | 21 µM |
| O=C(Nc1cccc(OC(F)(F)F)c1F)C1=C(c2ccncc2)[C@@H]2CCC1O2 [Compound 51] | 26 µM |
| O=C(Nc1ccc(-c2ccccc2)c(Cl)c1)[C@@H]1[C@@H](c2cccc(C(F)(F)F)n2)[C@@H]2CC[C@H]1O2 [Compound 83] | > 33 µM |
| Cn1nc(C(F)(F)F)cc1[C@@H]1[C@@H](C(=O)Nc2ccc(Cl)c(Cl)c2)[C@H]2CC[C@@H]1O2 [Compound 89] | > 33 µM |
| COC(=O)c1cc(-c2ccccc2)ccc1NC(=O)[C@H]1[C@@H](c2nc(-c3ccc(Cl)cc3)no2)[C@@H]2CC[C@H]1O2 [Compound 9] | > 11.1 µM |
| O=C(Nc1cccc(C(F)(F)F)c1F)C1=C(c2cccc(C(F)(F)F)n2)C2CCC1O2 (stereo not shown) [Compound 157] | 25 µM |
| Cn1nc(C(F)(F)F)cc1C1=C(C(=O)Nc2ccc(Cl)c(Cl)c2)[C@H]2CC[C@@H]1O2 [Compound 141] | 17 µM |
| O=C(Nc1ccc(-c2ccccc2)c(Cl)c1)C1=C(c2ccn[nH]2)[C@@H]2CC[C@H]1O2 [Compound 47] | 18 µM |
| O=C(Nc1ccc(-c2ccccc2Cl)c(F)c1)C1=C(c2ccnn2C2CCOCC2)[C@@H]2CCC1O2 [Compound 31] | > 33 µM |
| O=C(Nc1ccc(-c2ccccc2F)c(F)c1)C1=C(c2ccnc(F)c2Cl)[C@@H]2CCC1O2 [Compound 97] | 22.6 µM |
| O=C(Nc1ccc(-c2ccccc2)c(Cl)c1)[C@@H]1[C@@H](c2ccncc2)[C@@H]2CC[C@H]1O2 [Compound 98] | > 33 µM |
| O=C(Nc1ccc(-c2ccccc2F)c(F)c1)[C@@H]1[C@@H](c2ccccn2)[C@@H]2CC[C@H]1O2 [Compound 80] | > 17 µM |
| O=C(Nc1ccc(-c2ccccc2Cl)c(F)c1)[C@H]1[C@H](c2ccncc2)[C@@H]2CC[C@H]1O2 [Compound 26] | > 3.4 µM |

| Structure (SMILES) | IC50 |
| --- | --- |
| O=C(Nc1ccc(Cl)c(F)c1)[C@H]1[C@H](c2ccncc2)[C@@H]2CC[C@H]1O2 [Compound 33] | > 33 µM |
| O=C(Nc1ccc(Cl)c(Cl)c1)[C@@H]1[C@H](c2cccc(C(F)(F)F)n2)[C@@H]2CC[C@H]1O2 [Compound 155, (1R,2R,3R,4S)—N-(3,4-dichlorophenyl)-3-(6-(trifluoromethyl)pyridin-2-yl)-7-oxabicyclo[2.2.1]heptane-2-carboxamide] | > 33 µM |
| Nc1cc([C@@H]2[C@H](C(=O)Nc3ccc(Cl)c(Cl)c3)[C@H]3CC[C@@H]2O3)ccn1 (single isomer, unassigned) [Compound 115] | 26 µM |
| O=C(Nc1ccc(-c2ccccc2F)c(F)c1)C1=C(c2ccnc(N3CC[C@H](O)C3)c2)[C@@H]2CC[C@H]1O2 [Compound 167] | > 33 µM |
| CCOC(=O)c1ccc(NC(=O)C2=C(c3ccncc3)C3CCC2O3)cc1F (stereo not shown) [Compound 67] | > 33 µM |
| O=C(Nc1ccc(Cl)c(Cl)c1)[C@@H]1[C@@H](c2cccc(C(F)(F)F)n2)[C@@H]2CC[C@H]1O2 [Compound 92] | > 33 µM |
| O=C(Nc1ccc(-c2ccccc2)cc1)[C@H]1[C@@H](c2cccnc2)[C@H]2CC[C@@H]1O2 [Compound 121] | > 23 µM |
| O=C(Nc1ccc(-c2ccccc2Cl)c(F)c1)[C@@H]1[C@@H](c2ccncc2)[C@@H]2CC[C@H]1O2 [Compound 76] | > 33 µM |
| O=C(Nc1ccc(-c2ccccc2)c(Cl)c1)C1=C(c2cccc(C(F)(F)F)n2)[C@@H]2CC[C@H]1O2 [Compound 160, (1R,4S)—N-(2-chloro-[1,1′-biphenyl]-4-yl)-3-(6-(trifluoromethyl)pyridin-2-yl)-7-oxabicyclo[2.2.1]hept-2-ene-2-carboxamide] | 5.4 µM |
| CCOC(=O)c1ccc(NC(=O)C2=C(c3cc(C(F)(F)F)nn3C)[C@@H]3CC[C@H]2O3)cc1 [Compound 142] | > 33 µM |
| O=C(Nc1ccc(Cl)c(F)c1)[C@@H]1[C@H](c2ccncc2)[C@@H]2CC[C@H]1O2 [Compound 18] | > 33 µM |
| N#Cc1cc(C2=C(C(=O)Nc3ccc(-c4ccccc4F)c(F)c3)C3CC[C@@H]2O3)ccn1 [Compound 56] | > 33 µM |
| Cn1cc2cc([C@H]3[C@@H](C(=O)Nc4ccc(-c5ccccc5F)c(F)c4)[C@H]4CC[C@@H]3O4)ccc2n1 [Compound 65] | > 33 µM |
| COC(=O)c1cc(Cl)ccc1NC(=O)C1=C(c2ccncc2)[C@@H]2CCC1O2 [Compound 54] | > 33 µM |
| O=C(Nc1ccc(-c2ccc(F)cc2F)c(F)c1)[C@H]1[C@H](c2ccncc2)[C@@H]2CC[C@H]1O2 [Compound 70] | > 33 µM |
| CCOC(=O)c1ccc(NC(=O)[C@H]2[C@H](c3ccc(OC)cn3)[C@@H]3CC[C@H]2O3)cc1 [Compound 151] | > 33 µM |
| Nc1cc([C@H]2[C@@H](C(=O)Nc3ccc(-c4ccccc4F)c(F)c3)[C@H]3CC[C@@H]2O3)ccn1 [Compound 64] | > 33 µM |
| O=C(Nc1ccc(-c2ccccc2F)c(Cl)c1)[C@@H]1C(c2cccc(C(F)(F)F)n2)[C@@H]2CC[C@H]1O2 (stereo partly shown) [Compound 27] | > 33 µM |
